Non-standard residues stand in square brackets, D forms with d. Residues, ends and D or L forms follow the SMILES beside them. *: point of attachment. Palmitoyl = CCCCCCCCCCCCCCCC(=O)*
Tested on: MDA-MB-231 triple-negative human breast cancer cells
Assay: Cell Titer Blue in vitro cell viability assay, MDA-MB-231
Assay type: cell-based
Details: MDA-MB-231 (DMEM); for IC50: MDA-MB-231, 72 h, 3 days at 37° C.
Procedure: FIG. 1: Dose Response curve for MBC017 with MDA-MB-231 cells. Compound MBC017 was incubated with MDA-MB-231 triple-negative human breast cancer cells at the indicated concentrations for 3 days at 37° C. prior to Cell Titer Blue fluorescence-based cell viability assay. Normalized cell viability data, expressed as a percentage, are averaged from three biological replicates and standard error represented by error bars for each averaged data point (empty squares). The compound concentrations are represented on log scale on the x-axis in μM units. Data were analyzed using free software called DrFit, as described in Nature Scientific Reports, Article number: 14701, (2015). […] The data were not sufficient to calculate an accurate IC50 value.
A commercially available in vitro cell viability reagent (Cell Titer Blue) was employed to determine the anti-cancer effectiveness of several compounds (1-5) against multiple cancer and healthy tissue-derived cell lines. Cell lines are summarized in Table 2, as follows: All cell lines and information on each cell lines origins and characteristics were procured from ATCC (www.atcc.org). Common names and ATCC product IDs are shown in the first (leftmost) column. From the left, the second and third columns describe the organism and tissue from which each cell line was isolated. The fourth and fifth columns indicate the cell type and disease status (e.g. normal versus carcinoma) of each cell line. The sixth column provides a summary of what compounds were tested against each cell line using an in vitro cell viability assay. Peptide name IDs are shown in parenthesis for each compound, numbered 1 through 5.
The Cell Titer Blue reagent (available from Promega, Inc.) is a buffered solution containing resazurin, a compound that is converted to resorufin, a detectable fluorescent product, by metabolically active cells. The fluorescence intensity of resorufin product therefore serves as a proportional measure of the number of viable cells, permitting changes in cell viability within cancer or other cell lines to be monitored in response to the addition of cytotoxic or cytostatic agents. Various human breast tissue-derived cell lines are widely employed to study the effects of potential therapeutics against breast cancer in vitro. Human breast cancer cell lines may be subdivided into groups based upon hormone receptor status, i.e. estrogen, progesterone and human epidermal growth factor positive or negative. A healthy human breast tissue-derived cell line, hTERT-HME1 may be used to determine the effect of therapeutic agents on healthy human breast tissue in vitro. Additionally, a highly metastatic and aggressive murine (mouse) breast cancer cell line, 4T1, has been extensively used to monitor breast cancer metastasis from the mammary fat pads of mice to the lungs in order to systematically survey the anti-metastatic effectiveness of anti-cancer therapeutics in an in vivo animal model. Metastases to the lungs may be conveniently quantified by a well-established clonogenic assay. Other human tissue-derived model cell lines, representative of various cancers, other than breast cancer, may be utilized to assess the potential of anti-cancer compounds in vitro. These include, K-562 (chronic myelogenous leukemia), HEPG2 (hepatocellular carcinoma), OVCAR-3 (ovarian adenocarcinoma), SK—N—SH (neuroblastoma) and A549 (lung carcinoma). Several compounds were assayed in vitro using the Cell Titer Blue viability assay against an array of cancer cell lines of both human and murine origin plus one healthy human breast cell line (Table 1, FIGS. 1-16). A mouse 4T1 metastasis study was performed to determine the anti-metastatic potential of one compound, MBC0179 (FIG. 17).
Dimethyl sulfoxide (DMSO), Cremophor EL, methylene blue, 100× antibiotic/antimycotic solution, collagenase (Type IV), DNAse I and 6-thioguanine were available from Millipore-Sigma. […]

SMILES | IC50 | cytotoxicity at 125 µM (72 h, 125 μM, relative to vehicle, 3 days of incubation, read-out: reduction in viability)
CCCCCCCCCCCCCCCC(=O)N[C@H](Cc1c[nH]cn1)C(=O)N[C@@H](C(=O)O)C(C)C [Compound 4, N-[N-(1-oxohexadecyl)-D-histidyl]-D-valine] (Palmitoyl-[dH]-[dV]-OH) | 62.1 µM | –
CCCCCCCCCCCCCCCC(=O)N[C@@H](Cc1c[nH]cn1)C(=O)N[C@H](C(=O)OCC)C(C)C [Compound 3, N-[N-(1-oxohexadecyl)-L-histidyl]-L-valine ethyl ester] (Palmitoyl-His-Val-OEt) | 13.1 µM | –
CCCCCCCCCCCCCCCC(=O)N[C@@H](Cc1c[nH]cn1)C(=O)N[C@H](C(=O)O)C(C)C [Compound 1, N-[N-(1-oxohexadecyl)-L-histidyl]-L-valine] (Palmitoyl-His-Val-OH) | – | ~40%
CCCCCCCCCCCCCCCC(=O)N[C@@H](Cc1c[nH]cn1)C(=O)N[C@H](C(=O)O)[C@@H](C)CC [Compound 2, N-[N-(1-oxohexadecyl)-L-histidyl]-L-isoleucine] (Palmitoyl-His-Ile-OH) | 6730 µM | –

Reference: patent US20240124520A1, “N-ACYLATED HISTIDINE DIPEPTIDES AS ANTICANCER AGENTS” (THE BOARD OF TRUSTEES OF THE LELAND STANFORD JUNIOR …, priority 2019, published 2024)
